Measured values as given in patent US11040952B2, “Phthalazinone compound, method for preparation thereof, pharmaceutical composition thereof, and use thereof” (SHANGHAI INSTITUTE OF MATERIA MEDICA, CHINESE ACADEMY OF …, priority 2017, dated 2021).

Assays:
[1] = MTT assay for cytotoxicity; assay type: cell-based, Human; details: human, HepG2.2.15 cells, half (50%) lethal concentration
Procedure: (§1) Human hepatoblastoma cell line HepG2.2.15 stably transfected with full-length HBV (provided by Shanghai Institute of Materia Medica, Chinese Academy of Sciences)
(§2) HepG2.2.15 cells were cultured and passaged according to conventional methods. DMEM containing 10% (v/v) bovine serum and the selective antibiotic G418 was used as a medium, the cells were cultured in an incubator at 37° C. under 5% CO2 for 8 days (the medium was exchanged on the 4th day).
(§3) The test compounds were formulated with DMSO into a 40 mM stock solution, which was then prepared into a solution at the defined highest concentration using a DMEM medium containing 10% Hyclone™ Fetal Bovine Serum, followed by diluting the same; the positive drug was lamivudine, which was also prepared into a solution at the defined concentration with the DMEM medium containing 10% Hyclone™ Fetal Bovine Serum.
HepG2.2.15 cells were seeded at 5×10^3 cells/well in a 96-well plate, and cultured for eight days in the presence of the compounds according to the above method, and then 200 μl of the supernatant was taken out, followed by addition of the MTT solution. After 4 hours of culture, a lysate was added. After 12 hours of culture, the OD570 was measured on a microplate reader. By comparing with the absorbance of the control well, the percentage of viable cells was calculated, and CC50, the concentration required for the reduction of cell viability by 50%, was calculated.

HBV = HBV DNA content in the supernatant of cell culture (real-time PCR); assay type: cell-based, hepatitis B virus (HBV); details: Hepatitis B virus, HepG2.2.15, 192 h, inhibition of HBV DNA replication, HepG2.2.15 supernatant, 8 days
Procedure: as §1, §2, §3
HepG2.2.15 cells were treated with compounds at different concentrations for 8 days (the medium was exchanged on the 4th day), and the supernatant was aspirated, and the HBV DNA contained in the mature virus particles in the supernatant was quantitated by using a real-time PCR method.
1) The supernatant DNA from a 96-well plate, 200 μl/well, was collected, wherein the contents in the duplicate wells were collected into a same EP tube, and centrifuged at 4000 rcf for 5 min, and the supernatant was collected;
2) 200 μl of the supernatant was added into a 1.5 ml EP tube, added with 20 μl of proteinase K and 200 μl of Buffer AL (Qiagen, DNeasy® Blood & Tissue Kit), vortexed to be mixed thoroughly, and incubated at 56° C. for 10 min;
3) 200 μl of ethanol was added and vortexed to be mixed thoroughly;
4) all the liquid obtained from step 3) was added into a DNeasy Mini spin column (Qiagen, DNeasy® Blood & Tissue Kit) placed in a 2 ml waste liquid collection tube, and centrifuged at 6000 rcf for 1 min, and the supernatant was discarded;
5) the DNeasy Mini spin column was placed in a new 2 ml waste liquid collection tube, added with 500 μl of Buffer AW1 (Qiagen, DNeasy® Blood & Tissue Kit), and centrifuged at 6000 rcf for 1 min, and the supernatant was discarded;
6) the DNeasy Mini spin column was placed in a new 2 ml waste liquid collection tube, added with 500 μl of Buffer AW2, (Qiagen, DNeasy® Blood & Tissue Kit), and centrifuged at 20000 rcf for 3 min, and the supernatant was discarded;
7) the DNeasy Mini spin column was placed in anew 1.5 ml EP tube, 50 μl of Buffer AE (Qiagen, DNeasy® Blood & Tissue Kit) was pipetted and directly applied onto the membrane of the DNeasy Mini spin column, which was then left at room temperature for 5 min, and centrifuged at 6000 rcf for 1 min to elute the DNA from the membrane, the DNeasy Mini spin column was discarded, and the DNA sample was collected and stored at −20° C.
1) Standard curve: 1e^7-1e^4 IU/ml, the sample amount was 1 μl, a blank well was set so as to check whether the reaction system is polluted or not;
2) 1 μl of a DNA sample was added in sequence;
3) Addition of enzyme and reaction buffer: two tubes of the reaction solution were first added into the enzyme, mixed well and centrifuged slightly, placed on ice, added with the sample, followed by addition of 19 μl of the enzyme reaction solution, wherein, during the addition, the DNA sample should be sure of not being touched to cause contamination;
4) the sample was sealed with a sealing film and centrifuged;
Stage 2: 10 cycles • Step 1: 93° C., 45 s • Step 2: 55° C., 1 min Stage 3: 45 cycles • Step 1: 93° C., 30 s • Step 2: 55° C., 45 s
Detection: data were collected after completing the step 2 (55° C., 45 s) of the stage 3.
The experimental data were processed by using the Origin software and IC50 was calculated.

O=c1c2ccccc2c(-c2ccncc2)nn1Cc1ccc(Cl)cc1 [Compound I-1]
CC50 at 8 days [1]: > 100000 nM
IC50 (HBV): 7300 nM

O=c1c2ccccc2c(-c2cccnc2)nn1Cc1ccc(Cl)cc1 [Compound I-2]
CC50 at 8 days [1]: 98700 nM
IC50 (HBV): 3100 nM

Nc1ccc(-c2nn(Cc3ccc(Cl)cc3)c(=O)c3ccccc23)cn1 [Compound I-5]
CC50 at 8 days [1]: 51800 nM
IC50 (HBV): 1500 nM

O=c1c2ccccc2c(-c2cccnc2Cl)nn1Cc1ccc(Cl)cc1 [Compound I-6]
CC50 at 8 days [1]: > 100000 nM
IC50 (HBV): 1700 nM

Cc1ncccc1-c1nn(Cc2ccc(Cl)cc2)c(=O)c2ccccc12 [Compound I-7]
CC50 at 8 days [1]: 48900 nM
IC50 (HBV): 3800 nM

N#Cc1ncccc1-c1nn(Cc2ccc(Cl)cc2)c(=O)c2ccccc12 [Compound I-8]
CC50 at 8 days [1]: > 100000 nM
IC50 (HBV): 5200 nM

CN(C)c1ccc(-c2nn(Cc3ccc(Cl)cc3)c(=O)c3ccccc23)c(F)n1 [Compound I-13]
CC50 at 8 days [1]: 32700 nM
IC50 (HBV): 1200 nM

CC(C)(C)Nc1ccc(-c2nn(Cc3ccc(Cl)cc3)c(=O)c3ccccc23)c(F)n1 [Compound I-14]
CC50 at 8 days [1]: 10300 nM
IC50 (HBV): 2100 nM

COCNc1ccc(-c2nn(Cc3ccc(Cl)cc3)c(=O)c3ccccc23)c(F)n1 [Compound I-15]
CC50 at 8 days [1]: > 100000 nM
IC50 (HBV): 6200 nM

O=c1c2ccccc2c(-c2ccc(NC3CC3)nc2F)nn1Cc1ccc(Cl)cc1 [Compound I-16]
CC50 at 8 days [1]: 20100 nM
IC50 (HBV): 500 nM

O=c1c2ccccc2c(-c2ccc(NC3COC3)nc2F)nn1Cc1ccc(Cl)cc1 [Compound I-17]
CC50 at 8 days [1]: > 100000 nM
IC50 (HBV): 1600 nM

O=c1c2ccccc2c(-c2ccc(N3CCC3)nc2F)nn1Cc1ccc(Cl)cc1 [Compound I-18]
CC50 at 8 days [1]: 42900 nM
IC50 (HBV): 1200 nM

O=c1c2ccccc2c(-c2ccc(C(F)(F)F)nc2F)nn1Cc1ccc(Cl)cc1 [Compound I-19]
CC50 at 8 days [1]: 77500 nM
IC50 (HBV): 200 nM

CN(C)CCNc1ccc(-c2nn(Cc3ccc(Cl)cc3)c(=O)c3ccccc23)c(F)n1 [Compound I-21]
CC50 at 8 days [1]: > 100000 nM
IC50 (HBV): 1600 nM

O=c1c2ccccc2c(-c2ccc(CO)nc2F)nn1Cc1ccc(Cl)cc1 [Compound I-22]
CC50 at 8 days [1]: > 100000 nM
IC50 (HBV): 400 nM

O=c1c2ccccc2c(-c2c(F)cc(F)nc2F)nn1Cc1ccc(Cl)cc1 [Compound I-23]
CC50 at 8 days [1]: > 100000 nM
IC50 (HBV): 600 nM

[2H]C([2H])(c1ccc(Cl)cc1)n1nc(-c2ccc(C)nc2F)c2ccccc2c1=O [Compound I-25]
CC50 at 8 days [1]: > 100000 nM
IC50 (HBV): 1300 nM

[2H]C([2H])(c1ccc(Cl)cc1)n1nc(-c2ccc(F)nc2F)c2ccccc2c1=O [Compound I-27]
CC50 at 8 days [1]: > 100000 nM
IC50 (HBV): 300 nM

CC(=O)OCc1ccc(-c2nn(Cc3ccc(Cl)cc3)c(=O)c3ccccc23)c(F)n1 [Compound I-28]
CC50 at 8 days [1]: 73100 nM
IC50 (HBV): 1000 nM

O=c1c2ccccc2c(-c2ccc(CN3CCOCC3)nc2F)nn1Cc1ccc(Cl)cc1 [Compound I-29]
CC50 at 8 days [1]: > 100000 nM
IC50 (HBV): 4600 nM

O=c1c2ccccc2c(-c2ccc(NCC3CCOCC3)nc2F)nn1Cc1ccc(Cl)cc1 [Compound I-30]
CC50 at 8 days [1]: > 100000 nM
IC50 (HBV): 400 nM

O=c1c2ccccc2c(-c2ccc(C3CC3)nc2F)nn1Cc1ccc(Cl)cc1 [Compound I-31]
CC50 at 8 days [1]: > 100000 nM
IC50 (HBV): 600 nM

COCc1ccc(-c2nn(Cc3ccc(Cl)cc3)c(=O)c3ccccc23)c(F)n1 [Compound I-32]
CC50 at 8 days [1]: > 100000 nM
IC50 (HBV): 1000 nM

CN(C)Cc1ccc(-c2nn(Cc3ccc(Cl)cc3)c(=O)c3ccccc23)c(F)n1 [Compound I-33]
CC50 at 8 days [1]: > 100000 nM
IC50 (HBV): 1300 nM

[2H]C([2H])([2H])c1ccc(-c2nn(Cc3ccc(Cl)cc3)c(=O)c3ccccc23)c(F)n1 [Compound I-34]
CC50 at 8 days [1]: > 100000 nM
IC50 (HBV): 200 nM

[2H]C([2H])(OC)c1ccc(-c2nn(Cc3ccc(Cl)cc3)c(=O)c3ccccc23)c(F)n1 [Compound I-35]
CC50 at 8 days [1]: > 100000 nM
IC50 (HBV): 300 nM

[2H]C([2H])([2H])OC([2H])([2H])c1ccc(-c2nn(Cc3ccc(Cl)cc3)c(=O)c3ccccc23)c(F)n1 [Compound I-36]
CC50 at 8 days [1]: 89000 nM
IC50 (HBV): 1500 nM

[2H]C([2H])(c1ccc(-c2nn(Cc3ccc(Cl)cc3)c(=O)c3ccccc23)c(F)n1)N(C)C [Compound I-37]
CC50 at 8 days [1]: 95000 nM
IC50 (HBV): 2700 nM

[2H]C([2H])(NC)c1ccc(-c2nn(Cc3ccc(Cl)cc3)c(=O)c3ccccc23)c(F)n1 [Compound I-38]
CC50 at 8 days [1]: 81000 nM
IC50 (HBV): 800 nM

O=c1c2ccccc2c(-c2cc(Cl)cnc2F)nn1Cc1ccc(Cl)cc1 [Compound I-39]
CC50 at 8 days [1]: > 25000 nM
IC50 (HBV): 210 nM

N#Cc1ccc(Cn2nc(-c3cc(Cl)cnc3F)c3ccccc3c2=O)cc1 [Compound I-40]
CC50 at 8 days [1]: > 100000 nM
IC50 (HBV): 51 nM

N#Cc1ccc(Cn2nc(-c3cc(Cl)cnc3F)c3ccccc3c2=O)c(Cl)c1 [Compound I-41]
CC50 at 8 days [1]: 46600 nM
IC50 (HBV): 108 nM

N#Cc1ccc(Cn2nc(-c3cc(Cl)cnc3F)c3ccccc3c2=O)c(F)c1 [Compound I-42]
CC50 at 8 days [1]: 33500 nM
IC50 (HBV): 378 nM

N#Cc1ccc(Cn2nc(-c3cc(O)cnc3F)c3ccccc3c2=O)cc1 [Compound I-43]
CC50 at 8 days [1]: > 100000 nM
IC50 (HBV): 1570 nM

Cc1cnc(F)c(-c2nn(Cc3ccc(C#N)cc3)c(=O)c3ccccc23)c1 [Compound I-44]
CC50 at 8 days [1]: 31500 nM
IC50 (HBV): 294 nM

N#Cc1ccc(Cn2nc(-c3cc(CN4CCOCC4)cnc3F)c3ccccc3c2=O)cc1 [Compound I-45]
CC50 at 8 days [1]: > 100000 nM
IC50 (HBV): 2020 nM

Cc1ccc(-c2nn(Cc3ccc(Cl)cc3)c(=O)c3ccc(F)cc23)c(F)n1 [Compound V-1]
CC50 at 8 days [1]: > 100000 nM
IC50 (HBV): 700 nM

Cc1ccc(-c2nn(Cc3ccc(Cl)cc3)c(=O)c3cc(F)c(F)cc23)c(F)n1 [Compound V-2]
CC50 at 8 days [1]: > 100000 nM
IC50 (HBV): 300 nM

Cc1ccc2c(=O)n(Cc3ccc(Cl)cc3)nc(-c3ccc(C)nc3F)c2c1 [Compound V-3]
CC50 at 8 days [1]: > 100000 nM
IC50 (HBV): 1500 nM

Cc1ccc(-c2nn(Cc3ccc(Cl)cc3)c(=O)c3cc(C)c(C)cc23)c(F)n1 [Compound V-4]
CC50 at 8 days [1]: > 100000 nM
IC50 (HBV): 1300 nM

COc1ccc2c(=O)n(Cc3ccc(Cl)cc3)nc(-c3ccc(C)nc3F)c2c1 [Compound V-5]
CC50 at 8 days [1]: > 100000 nM
IC50 (HBV): 3700 nM

COc1cc2c(-c3ccc(C)nc3F)nn(Cc3ccc(Cl)cc3)c(=O)c2cc1OC [Compound V-6]
CC50 at 8 days [1]: > 100000 nM
IC50 (HBV): 2600 nM

Cc1ccc(-c2nn(Cc3ccc(Cl)cc3)c(=O)c3ccc(C#N)cc23)c(F)n1 [Compound V-7]
CC50 at 8 days [1]: > 100000 nM
IC50 (HBV): 900 nM

Cc1ccc(-c2nn(Cc3ccc(Cl)cc3)c(=O)c3ccc(C(F)(F)F)cc23)c(F)n1 [Compound V-8]
CC50 at 8 days [1]: > 100000 nM
IC50 (HBV): 1100 nM

Cc1ccc(-c2nn(Cc3ccc(Cl)cc3)c(=O)c3cc(C(F)(F)F)c(C(F)(F)F)cc23)c(F)n1 [Compound V-9]
CC50 at 8 days [1]: > 100000 nM
IC50 (HBV): 1300 nM

Cc1ccc(-c2nn(Cc3ccc(C#N)cc3)c(=O)c3cc(F)c(F)cc23)c(F)n1 [Compound V-10]
CC50 at 8 days [1]: 47900 nM
IC50 (HBV): 700 nM

Cc1ccc(-c2nn(Cc3ccc(C#N)cc3)c(=O)c3cc(C)c(C)cc23)c(F)n1 [Compound V-11]
CC50 at 8 days [1]: > 100000 nM
IC50 (HBV): 1200 nM
